# From US20070059720A9 (priority 2004, published 2007)
# Assays:
# MCF-7-MKP3 cells = test: Anchorage-independent soft agar colony formation, MKP3-overexpressing MCF-7 transfectants; assay type: cell-based, human
# Description: MCF-7 cells were originally obtained from Dr. Benita Katzenellebogen, but have been maintained in the inventors' laboratory for over 10 years (Fuqua et al., 2000). MCF-7 cells were maintained in Minimal Essential Medium (MEM, InVitrogen) supplemented with 5% fetal bovine serum (Summit Biotechnology, Fort Collins, Colo.), 200 U/ml penicillin, and 200 μg/ml streptomycin. Cells were incubated at 37° C. in 5% CO2. To generate MCF-7 cells stably overexpressing MKP3, 5 μg of the plasmid pcDNA3-MKP3-V5 (Furukawa et al., 2003) or empty vector (pcDNA3-His-V5, InVitrogen), were transfected into the cells using Fugene 6 reagent Roche Clinical Laboratories, Indianapolis, Ind.) in 100 mm tissue culture dishes following the manufacturer's protocol. Stable clones overexpressing MKP3 were selected as described (Fuqua et al., 2000), and positive clones were identified using immunoblot analysis with an anti-V5 antibody (1:5000 dilution)
# Cells were starved for 2 days in PRF MEM (InVitrogen) supplemented with 5% fetal bovine serum (FBS, Summit Biotechnology, Fort Collins, Colo.), 6 ng/ml insulin, 200 units/ml penicillin, and 200 μg/ml streptomycin. Soft agar assays were performed in sixwell plates. Into each well, 1.5 ml of prewarmed (50° C.) 0.7% SeaPlaque agarose (FMC, Rockland, Me.) was added and dissolved in PRF MEM supplemented with 5% charcoal stripped FBS (Summit, Fort Collins, Colo.) to serve as the bottom layer, and allowed to solidify at 4° C. until to use. 0.5×10^4 cells as a single cell suspension were suspended in prewarmed (37° C.) of the same media, 4 ml of 0.5% SeaPlaque agarose was then added, and this suspension then plated as the top layer by adding it dropwise to the solidified bottom layer plates. Plates were cooled for 2 hours, and then transferred to a 37° C. humidified incubator. Two days after plating, media containing control vehicle, 1 nM estradiol, 100 nM 4-OH-Tam, 100 nM OHT plus 10 nM ICI, or 100 nM OHT plus 20 nM […] was added to the top cell layer, and the appropriate media was replaced every two days. After 14 days, the colonies were fixed, and the colony number of colonies >50 cells from quadruplicate assays were then counted. The data shown is the mean colony number of four plates, and is representative of two independent experiments.
# In pancreatic cells, ectopic expression of MKP3 is reported to result in a suppression of cell growth (Fuqua et al., 2003). Thus, the growth characteristics of the MCF-7 stable MKP3 transfectants under different hormonal conditions were investigated using anchorageindependent soft agar assay (FIG. 4B).
# MKP3 = target: T1, MKP3 (Homo sapiens, UniProt Q16828); test: Phosphatase assay with pNPP on V5 immunoprecipitates of treated MKP3 cells; assay type: biochemical; conditions: MKP3 transfectants treated 2 hours; relative to control-treated (intermediate)
# T1 construct: expressed in transfected cells
# T1 sequence (Q16828 1-381): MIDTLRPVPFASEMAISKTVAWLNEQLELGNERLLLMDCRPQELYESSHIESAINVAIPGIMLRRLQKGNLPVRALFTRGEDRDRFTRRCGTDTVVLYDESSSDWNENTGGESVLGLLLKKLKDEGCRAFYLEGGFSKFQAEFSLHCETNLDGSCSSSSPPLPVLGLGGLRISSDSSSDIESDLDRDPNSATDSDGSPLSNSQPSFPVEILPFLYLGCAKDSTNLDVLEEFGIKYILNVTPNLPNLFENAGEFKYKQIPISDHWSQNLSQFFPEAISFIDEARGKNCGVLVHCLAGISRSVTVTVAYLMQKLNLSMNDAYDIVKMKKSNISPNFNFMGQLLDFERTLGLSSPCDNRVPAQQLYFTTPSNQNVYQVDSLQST
# Description: MKP3-overexpressing cells and control vector transfected cells were treated as described above with ethanol, E2, or 4-OH-Tam, and lysed in buffer B containing 20 mM Tris-HCl (pH 7.0), 150 mM NaCl, 1% Triton X-100, 0.25 M sucrose, 1 mM EDTA, 1 mM EGTA, 0.1% β-mercaptoethanol, 1 mM PMSF, and 1 μg/ml leupeptin. The cell lysates were cleared and the protein concentrations were determined as detailed above. 300 μg of cell lysate at 1 μg/μl was immunoprecipitated by the addition of 1 μg anti-V5 antiserum, and 20 μl 50% protein G slurry. […] The reactions were then quenched by the addition of 20 μl 5N NaOH, and pNPP hydrolysis was measured at 405 nm. […] The amount of product p-nitrophenol was determined from the absorbance at 405 nm. […]
# The observed changes in pMAPK levels in MKP3 overexpressing cells was further characterized. […] Using the artificial substrate pNPP to measure endogenous phosphatase activity, there was an inverse relationship between measured phosphatase activity and pMAPK levels in the MKP3 transfectants. […] There were no observed changes in the ability of MKP3 to bind to MAPK, as measured by co-immunoprecipitation and immunoblot analysis (FIG. 5H). When the levels of MKP3-bound ERK2 were compared between the different hormonal treatments, no differences were detected (C, E, T, IP:V5 lanes). […]
# [1] = tested on: T47D cells overexpressing MTA2; test: Soft agar growth of MTA2-overexpressing T47D cells; assay type: cell-based, human; conditions: MTA2.5 and 2.8 clones compared to vector alone transfected cells
# From the text: Metastasis associated protein 2 (MTA2), also known as PID, is contained in nucleosome remodeling and histone deacetylation (NuRD) complexes. Overexpression of MTA2 into T47D human breast cancer cells (MTA2.5 and 2.8 clones) increases the growth in soft agar in the absence of estrogen (C).
SMILES,"estrogen-induced colony formation of MCF-7-MKP3 clones (MCF-7-MKP3 cells; 1 nM estradiol, versus vector control cells)",MKP3 phosphatase activity (pNPP hydrolysis) (MKP3),response of soft agar growth [1],"increase in number of soft agar colonies formed in the presence of Tam, MKP3-overexpressing transfectants compared to vector control cells (MCF-7-MKP3 cells; 100 nM 4-OH-Tam, two MKP3 clones, P<0.05)"
"C[C@]12CC[C@@H]3c4ccc(O)cc4CC[C@H]3[C@@H]1CC[C@@H]2O [E2, 17β-Estradiol]",equivalent to those obtained with vector control cells,highest,unresponsive,
"CC/C(=C(\c1ccccc1)c1ccc(OCCN(C)C)cc1)c1ccccc1 [Tam, tamoxifen]",,lowest,unresponsive,~20 fold
